From patent US10428082B2, “Triazole derivatives of melampomagnolide B and methods of use thereof” (BioVentures, LLC, priority 2016, dated 2019)
Read-outs that look alike come from different tables or passages of the source.

Legend:
[1] = tested on: primary AML cell line AML1; assay: Anti-leukemic activity, Annexin V/7-AAD flow cytometry; format: cell-based, human; conditions: 24 h of drug exposure, read-out: AML#1 (EC50)
Procedure: (§1) The newly synthesized triazole derivatives of melampomagnolide B were screened for anti-leukemic activity against M9 ENL1 and primary AML cell lines; the latter were obtained with informed consent from human patients. Evaluations were performed after 24 h of drug exposure using flow cytometric analysis by labeling with Annexin V and 7-aminoactinomycin D (7-AAD) to delineate apoptotic cell populations. In all experiments PTL was included as a reference control.

[2] = tested on: primary AML cell line AML2; assay: as above; format: cell-based, human; conditions: 24 h of drug exposure, read-out: AML#2 (EC50)
Procedure: as §1

[3] = tested on: M9 ENL1 cell line; assay: as above; format: cell-based
Procedure: as §1

[4] = Water solubility; format: physicochemical; conditions: fumarate salt vs free base
[5] = 24 h of drug exposure, read-out: M9ENL1 (EC50)
[6] = M9-ENL1, 24 h, 24 h of drug exposure, read-out: M9ENL1 (EC50)

Structure (SMILES)	EC50 [3, 5] [nM]	EC50 ([1]; Homo sapiens, AML1, 24 h) [µM]	EC50 [3, 6] [nM]	further results
C/C1=C\CC[C@@]2(C)O[C@@H]2[C@H]2OC(=O)[C@H](CN(C)C)[C@@H]2CC1 [DMAPT, reference compound]	6000			EC50 [1]: 14.7 µM; EC50 [2]: 11.3 µM
C=C1C(=O)O[C@H]2[C@H]1CC/C(Cn1cc(CO)nn1)=C\CC[C@@]1(C)O[C@@H]21 [JVM 3-75]	38000			
C=C1C(=O)O[C@H]2[C@H]1CC/C(Cn1cc(COC(=O)c3ccccc3)nn1)=C\CC[C@@]1(C)O[C@@H]21 [JVM 3-76]	11000			
C=C1C(=O)O[C@H]2[C@H]1CC/C(Cn1cc(CCCC)nn1)=C\CC[C@@]1(C)O[C@@H]21 [JVM 4-20]	4300			
C=C1C(=O)O[C@H]2[C@H]1CC/C(Cn1cc(-c3ccc(F)c(C)c3)nn1)=C\CC[C@@]1(C)O[C@@H]21 [JVM 4-27, (1aR,7aS,10aS,10bS,E)-5-((4-(4-Fluoro-3-methylphenyl)-1H-1,2,3-triazol-1-yl)methyl)-1a-methyl-8-methylene-2,3,6,7,7a,8,10a,10b-octahydrooxireno[2′,3′:9,10]cyclodeca[1,2-b]furan-9(1aH)-one]		1.3	1200	EC50 ([2]; Homo sapiens, 24 h): 1.2 µM
CN(C)CC1C(=O)O[C@H]2[C@H]1CC/C(Cn1cc(-c3cc(C(F)(F)F)cc(C(F)(F)F)c3)nn1)=C\CC[C@@]1(C)O[C@@H]21 (stereo partly drawn) [JVM 4-29B]		1.1	1900	EC50 ([2]; Homo sapiens, 24 h): 2.3 µM
CN(C)CC1C(=O)O[C@H]2[C@H]1CC/C(Cn1cc(-c3cc(C(F)(F)F)cc(C(F)(F)F)c3)nn1)=C\CC[C@@]1(C)O[C@@H]21 (stereo partly drawn) [JVM 4-29C]	1700			water solubility compared with free base form [4]: more water soluble than the free base form; EC50 [1]: 1 µM; EC50 [2]: 2.9 µM
C=C1C(=O)O[C@H]2[C@H]1CC/C(Cn1cc(CCCCl)nn1)=C\CC[C@@]1(C)O[C@@H]21 [JVM 4-31]	3800			

The next lines start with results.

EC50 [3, 5] [nM]	EC50 ([1]; Homo sapiens, AML1, 24 h) [µM]	EC50 [3, 6] [nM]	Structure (SMILES)	further results
		200	C#Cc1cccc(-c2cn(C/C3=C/CC[C@@]4(C)O[C@H]4[C@H]4OC(=O)C(=C)[C@@H]4CC3)nn2)c1 [JVM 4-41, (1aR,7aS,10aS,10bS,E)-5-((4-(3-Ethynylphenyl)-1H-1,2,3-triazol-1-yl)methyl)-1a-methyl-8-methylene-2,3,6,7,7a,8,10a,10b-octahydrooxireno[2′,3′:9,10]cyclodeca[1,2-b]furan-9(1aH)-one]	EC50 ([3]; M9-ENL1, text value in nM, read-out: EC50 against the M9 ENL cell line): 200 nM; fold more potent than parthenolide (PTL) ([3]; M9 ENL1 cells): 26 fold
	7.9	3200	C=C1C(=O)O[C@H]2[C@H]1CC/C(Cn1cc(-c3ccccn3)nn1)=C\CC[C@@]1(C)O[C@@H]21 [JVM 4-47, (1aR,7aS,10aS,10bS,E)-1a-Methyl-8-methylene-5-((4-(pyridin-2-yl)-1H-1,2,3-triazol-1-yl)methyl)-2,3,6,7,7a,8,10a,10b-octahydrooxireno[2′,3′:9,10]cyclodeca[1,2-b]furan-9(1aH)-one]	
	2.4	1500	C=C1C(=O)O[C@H]2[C@H]1CC/C(Cn1cc(-c3cc(F)cc(F)c3)nn1)=C\CC[C@@]1(C)O[C@@H]21 [JVM 4-48, (1aR,7aS,10aS,10bS,E)-5-((4-(3,5-Difluorophenyl)-1H-1,2,3-triazol-1-yl)methyl)-1a-methyl-8-methylene-2,3,6,7,7a,8,10a,10b-oetahydrooxireno[2′,3′:9,10]cyclodeca[1,2-b]furan-9(1aH)-one]	
16000			C=C1C(=O)O[C@@H]2[C@H]3O[C@]3(C)CC/C=C(\CO)CC[C@@H]12 [MMB, Melampomagnolide B]	EC50 [1]: 20.5 µM; EC50 [2]: 24.3 µM
